This note sets out measurements from US11116817B2, “Antimicrobial agents and compositions comprising the same” (THE CURATORS OF THE UNIVERSITY OF MISSOURI, priority 2017, dated 2021).

Like-named read-outs stand apart in the source and are kept apart here. Positions of bridges follow the written chain, without caps; N, C: chain ends. No end group written: not given here.

The subject of one data set is JAWSII cells. The data set is described as follows: Cell cytotoxicity assay (MTT). The class given is cell-based, mouse. The following applies: 4, 16, 64, 256 μg/ml for 4, 12, 24, and 48 hour. How it is done:
The Cell Cytotoxicity Assay includes the following procedures. Mouse immature dendritic cell line, JAWSII (ATCC CRL-11904™), was cultured in Alpha minimum essential medium with ribonucleosides, deoxyribonucleosides, 4 mM L-glutamine, 1 mM sodium pyruvate, and 5 ng/ml murine Granulocyte macrophage colony-stimulating factor (GM-CSF) then supplemented with 20% FBS, 100 U/ml penicillin, and 100 μg/ml streptomycin at 37° C. in humidified air with 5% CO2. CCR-2 transfected CHO-K1 cells were cultured in RPMI-1640 supplemented with 10% FBS, 2 mM L-glutamine, 100 units/ml penicillin and streptomycin, and 500 μg/ml G418 at 37° C. in humidified air with 5% CO2. The cytotoxicity of CAMPs (SEQ ID NOs: 1, 2, 3, and 4) to JASWII and CHO-K1 cells was determined using MTT (3-(4,5-dimethylthiazol-2-yl)-2,5-diphenyltetrazolium bromide, Thermo Fisher Scientific) cell proliferation assay. Cells (5×10^3 cells/well) in 96-well microtiter plates were treated with peptides at 64, 128, 256, and 512 μg/ml for 4, 12, 24, and 48 hours at 37° C. After treatment, 20 μl of 12 mM MTT solution was added to each well and the plate was incubated for 4 hours. […] The plates were read using a spectrophotometer at 540 nm. The viability of treated cells was expressed as the percentage of viability relative to the untreated control. […]

Data set [1] deals with chicken macrophage cell line MQ-NCSU. The data set is described as follows: Cell cytotoxicity assay (MTT). The class given is cell-based. The following applies: 4, 16, 64, 256 μg/ml for 4, 12, 24, and 48 hour. As for the experimental part:
(§1) Chicken macrophage cell lines MQ-NCSU and HD11 were maintained in RPMI-1640 media supplemented with 10% fetal bovine serum (FBS), 2% chicken serum, 100 U/ml penicillin and 100 μg/ml streptomycin (Sigma-Aldrich) at 37° C. in humidified air with 5% CO2. CHO-K1 cells were cultured in the same media without 2% chicken serum. For CCR2-transfected CHO-K1 cells, medium was supplemented with 500 μg/ml G418 was added (Sigma-Aldrich). Murine immature dendritic cell line JAWSII (ATCC CRL-11904™) was cultured in Alpha minimum essential medium containing 4 mM L-glutamine, 1 mM sodium pyruvate, 5 ng/ml murine Granulocyte macrophage colony-stimulating factor (GM-CSF), 20% FBS, 100 U/ml penicillin and 100 μg/ml streptomycin at 37° C. in humidified air with 5% CO2. The cell cytotoxicity was determined using the MTT (3-(4,5-dimethylthiazol-2-yl)-2,5-diphenyltetrazolium bromide cell proliferation assay according to the manufacturer's instruction (Thermo Fisher Scientific). Briefly, cells (5×10^3 cells/well) were seeded in 96-well tissue culture plates, incubated overnight and treated with the analogues at concentrations of 4, 16, 64 and 256 μg/ml for 4, 12, 24 and 48 hours at 37° C. After treatment, […] 12 mM MTT solution was added to each well. The plate was incubated for 4 hours and read at 540 nm. Viability was expressed as percentage of viable cells relative to the untreated control. […]

Data set [2] deals with chicken macrophage cell line HD11. Nature of the data set: Cell cytotoxicity assay (MTT). Type of data set: cell-based. The conditions noted are these: 4, 16, 64, 256 μg/ml for 4, 12, 24, and 48 hour. As for the experimental part:
as §1

A further data set deals with E. coli (ATCC 25922). Type of data set: cell-based. How it is done: (§2) The minimum inhibitory concentrations (MIC) of AvBDs (SEQ ID NOs: 5, 6, 7, 8, 9, 10, 11, 12, and 13) were determined under low salt and standard conditions according to the guidelines of the Clinical and Laboratory Standards Institute (CLSI). […] An equal volume […] of bacterial suspension was added to each well of the plate. The final bacterial concentration in the wells was 5×10^5 CFU/ml. […] To complement MIC-1s assays, the minimum bactericidal concentrations (MBC) were evaluated by sub-culturing the contents of the first two clear wells obtained in the MIC-1s assay onto LB agar plates. All assays were conducted in triplicate. The lowest peptide concentration inhibiting about, at least, or more than 99% of bacterial growth was defined as MBC-1s. The analogues were regarded as bactericidal when the MBC was determined to be no more than four times the MIC.

Data set [3] deals with S. aureus (ATCC 29213). The class given is cell-based. How it is done:
as §2

For data set [4], the system named is S. Typhimurium (ATCC 14028). Type of data set: cell-based. How it is done: as §2
For data set [5], the system named is P. aeruginosa (ATCC 27853). The class given is cell-based. As for the experimental part:
as §2

Another data set relates to CHO-K1 cells. Nature of the data set: Cell cytotoxicity assay (MTT). The class given is cell-based, hamster. The conditions noted are these: 4, 16, 64, 256 μg/ml for 4, 12, 24, and 48 hour. As for the experimental part:
The Cell Cytotoxicity Assay includes the following procedures. Mouse immature dendritic cell line, JAWSII (ATCC CRL-11904™), was cultured in Alpha minimum essential medium with ribonucleosides, deoxyribonucleosides, 4 mM L-glutamine, 1 mM sodium pyruvate, and 5 ng/ml murine Granulocyte macrophage colony-stimulating factor (GM-CSF) then supplemented with 20% FBS, 100 U/ml penicillin, and 100 μg/ml streptomycin at 37° C. in humidified air with 5% CO2. CCR-2 transfected CHO-K1 cells were cultured in RPMI-1640 supplemented with 10% FBS, 2 mM L-glutamine, 100 units/ml penicillin and streptomycin, and 500 μg/ml G418 at 37° C. in humidified air with 5% CO2. The cytotoxicity of CAMPs (SEQ ID NOs: 1, 2, 3, and 4) to JASWII and CHO-K1 cells was determined using MTT (3-(4,5-dimethylthiazol-2-yl)-2,5-diphenyltetrazolium bromide, Thermo Fisher Scientific) cell proliferation assay. Cells (5×10^3 cells/well) in 96-well microtiter plates were treated with peptides at 64, 128, 256, and 512 μg/ml for 4, 12, 24, and 48 hours at 37° C. After treatment, 20 μl of 12 mM MTT solution was added to each well and the plate was incubated for 4 hours. The medium in each well was replaced with 100 μl of dimethyl sulfoxide (DMSO, Sigma-Aldrich) to dissolve MTT crystals. The plates were read using a spectrophotometer at 540 nm. The viability of treated cells was expressed as the percentage of viability relative to the untreated control. The experiment was performed in triplicate.
Chicken macrophage cell lines MQ-NCSU and HD11 were maintained in RPMI-1640 media supplemented with 10% fetal bovine serum (FBS), 2% chicken serum, 100 U/ml penicillin and 100 μg/ml streptomycin (Sigma-Aldrich) at 37° C. in humidified air with 5% CO2. CHO-K1 cells were cultured in the same media without 2% chicken serum. For CCR2-transfected CHO-K1 cells, medium was supplemented with 500 μg/ml G418 was added (Sigma-Aldrich). Murine immature dendritic cell line JAWSII (ATCC CRL-11904™) was cultured in Alpha minimum essential medium containing 4 mM L-glutamine, 1 mM sodium pyruvate, 5 ng/ml murine Granulocyte macrophage colony-stimulating factor (GM-CSF), 20% FBS, 100 U/ml penicillin and 100 μg/ml streptomycin at 37° C. in humidified air with 5% CO2. The cell cytotoxicity was determined using the MTT (3-(4,5-dimethylthiazol-2-yl)-2,5-diphenyltetrazolium bromide cell proliferation assay according to the manufacturer's instruction (Thermo Fisher Scientific). Briefly, cells (5×10^3 cells/well) were seeded in 96-well tissue culture plates, incubated overnight and treated with the analogues at concentrations of 4, 16, 64 and 256 μg/ml for 4, 12, 24 and 48 hours at 37° C. After treatment, […] 12 mM MTT solution was added to each well. The plate was incubated for 4 hours and read at 540 nm. Viability was expressed as percentage of viable cells relative to the untreated control. The experiments were performed in triplicate.

For data set [6], the system named is Gram-positive bacteria (S. aureus and MRSP strains). The data set is described as follows: MIC assay, Example One, pooled over Gram-positive strains. The conditions noted are these: mean over the Gram-positive strains of Table 2. Type of data set: cell-based, S. pseudintermedius. As for the experimental part:
(§3) The minimum inhibitory concentrations (MICs) of CAMPs (SEQ ID NOs: 1, 2, 3, and 4) were determined according to the guidelines of the Clinical and Laboratory Standards Institute (CLSI). The Muller Hinton (MH) II broth used in MIC assay was supplemented with 20-25 mg/L of calcium and 10-12.5 mg/L of magnesium. In brief, peptides were two-fold serially diluted (2 to 256 μg/ml) in a 96-well microtiter plate (Nunc™, Thermo Fisher Scientific) and an equal volume (μl) of bacterial suspension was added to each well of the plate. The final bacterial concentration in the wells was 5×10^5 CFU/ml. […] All assays were conducted in triplicate.
The Hemolytic Assay includes the following procedures. […] The supernatant was transferred to a 96-well flat-bottomed polystyrene plate (Thermo Fisher Scientific), and the amount of hemoglobin released into the supernatant was determined by measuring the absorbance with a spectrophotometer at 540 nm. Hemolytic activity was expressed as the percentage of hemolysis and calculated using the following equation: hemolysis (%)=(As−A0)/(A100−A0)×100, where As is the absorbance of the sample, A100 is the absorbance of completely lysed RBCs in 0.2% Triton X-100, and A0 is the absorbance in the complete absence of hemolysis (PBS treatment). […] Therapeutic index (T.I.) was calculated according to a previously published formula: T.I.=MHC/MICGM. […]

Another data set has as its system P. aeruginosa. Type of data set: cell-based. As for the experimental part:
as §3

The test system of data set [7] is S. aureus (ATCC 29213). The class given is cell-based. How it is done:
as §3
This is another data set of the same source.

For data set [8], the system named is methicillin-resistant S. pseudintermedius (MRSP). Type of data set: cell-based. How it is done:
as §3

Setting [9] is: standard conditions, CLSI guidelines.

The term MIC denotes the smallest concentration in the dilution series that meets the test's criterion for growth inhibition. The low end stands for greater potency, the high end for weaker potency.

With “GPHSCNHQRGLCRVGNCNPGYYLAKYCFSPVILCCKPLSPTPTKT (disulfide 5-34, 12-27, 17-35) [AvBD-12/6]”, the “effect on cell viability” value (in the data set on JAWSII cells; in [1]; in [2]; in the data set on CHO-K1 cells) was “did not appear to have any effect on cell viability” in each case. For the same sequence, the MBC-Is in the data set with E. coli (ATCC 25922) (low salt condition (5 mM NaCl)) was 32 µg/mL; with S. aureus (ATCC 29213) [3] (low salt condition (5 mM NaCl)), 256 µg/mL; in data set [4] (low salt condition (5 mM NaCl)) it was 64 µg/mL. In addition, the MIC-Is came to 8 µg/mL in the data set with E. coli (ATCC 25922) (low salt condition (5 mM NaCl)), 256 µg/mL with S. aureus (ATCC 29213) [3] (low salt condition (5 mM NaCl)), 16 µg/mL in data set [4] (low salt condition (5 mM NaCl)) and 64 µg/mL in data set [5] (low salt condition (5 mM NaCl)). In addition, the MIC is 256 µg/mL in the data set with E. coli (ATCC 25922) (setting [9]), 256 µg/mL against S. aureus (ATCC 29213) [3] (setting [9]), greater than 256 µg/mL in [4] (setting [9]) and greater than 256 µg/mL in data set [5] (setting [9]).
Regarding “SPIHACRYQRGVCIPGPCRWPYYRVGSCGSGLKSCCVRNRWA (disulfide 6-35, 13-28, 18-36) [AvBD-6]”, in [5] (low salt condition (5 mM NaCl)), the MBS-Is came to 128 µg/mL. For the same sequence, the “MICAverage G+” value in data set [6] is no less than 256 µg/mL. The MIC against P. aeruginosa (24 h) was greater than 256 µg/mL; in the data set with S. aureus (ATCC 29213) [7], 256 µg/mL; in data set [8] (S. pseudintermedius (13164006)), greater than 256 µg/mL; in [8] (S. pseudintermedius (13193006)) it was greater than 256 µg/mL; in [8] (S. pseudintermedius (13207007)), greater than 256 µg/mL; in [8] (S. pseudintermedius (13228005)), greater than 256 µg/mL. In addition, the MIC in data set [8] (S. pseudintermedius (13267017)) and in [8] (S. pseudintermedius (13269013)) was greater than 256 µg/mL throughout. For the same sequence, in the data set with P. aeruginosa (mean over the Gram-negative (P. aeruginosa) strains of Table 2), the “MICAverage G−” value was greater than 256 µg/mL.
